Data: patent US20100190688A1, “Tetrapeptide analogs” (priority 2004, published 2010)

Assays:
[1] = biological target: T1, BIR3-mediated Caspase-9 inhibition (UniProt Q9R0I6); test: Caspase-9 rescue assay (relief of BIR3-mediated Caspase-9 inhibition); assay type: biochemical, human Caspase-9; Rat or Chicken BIR3; settings: average EC50, substrate Ac-LEHD-amc, pH 6.5
T1 construct: Nothing is printed for this assay
Method: Additionally the compounds and compositions can be evaluated for their ability to achieve relief of BIR3-mediated Caspase-9 inhibition by measuring Caspase-9 reactivation. The fluorogenic substrate Ac-LEHD-7-amido-4-methylcoumarin is used in these methods. EC50 values of tested BIR3 inhibitors or Caspase-9 rescuers is calculated from the percentage of Caspase-9 reactivation in the mixtures containing serially diluted concentrations of tested compound. Typically, 10-point curves are generated for such EC50 determination.
Relief of BIR3-mediated Caspase-9 inhibition by BIR3 inhibitors was assayed by measuring Caspase-9 reactivation using the fluorogenic substrate Ac-LEHD-7-amido-4-methylcoumarin. A truncated form of human Caspase-9 that lacks the N-terminal Caspase recruitment domain (EPro-Caspase-9 or p35/p12) was used in the assay. This form of the enzyme has the full catalytic activity and the same substrate specificity as the full-length protein in the Apaf-1/Cytochrome C/dATP/Caspase-9 reconstituted system. Rat or Chicken BIR3 was used in this assay. […] This mixture was incubated for 40 min to allow equilibration at 25° C., and the assay progression was subsequently followed by monitoring the formation of fluorescent 7-amido-4-methylcoumarin over time at 460 nm using an excitation wavelength of 360 nm. […] EC50 values of tested BIR3 inhibitors or Caspase-9 rescuers were calculated from the percentage of Caspase-9 reactivation in the mixtures containing serially diluted concentrations of tested compound.

BIR3 domain of rat XIAP = BIR3 domain of rat XIAP (Rattus norvegicus, UniProt Q9R0I6); test: Fluorescence polarization assay, binding to BIR3 from rat XIAP
Chain of BIR3 domain of rat XIAP (Q9R0I6 241-355): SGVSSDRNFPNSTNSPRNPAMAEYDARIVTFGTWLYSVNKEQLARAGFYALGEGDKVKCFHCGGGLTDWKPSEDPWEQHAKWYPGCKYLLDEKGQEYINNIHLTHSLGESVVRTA
Method: In fluorescence polarization assays a fluorescent probe is used. The binding affinity of compounds to BIR3 is measured by competitive displacement of a fluorescent probe using fluorescence polarization anisotropy. […] In other embodiments, the probe used is 6-(6-Hydroxy-3-oxo-3H-xanthen-9-yl)-N-(5-(2-methylamino-propionylamino)-6-oxo-6-[4-(1,2,3,4-tetrahydro-naphthalen-1-ylcarbamoyl)-thiazolidin-3-yl]-hexyl)-isophthalamic acid.
The binding affinity of compounds provided herein for rat BIR3 was measured by competitive displacement of a fluorescent probe using fluorescence polarization anisotropy. […] Control conditions were set up on each plate and include free probe 1 alone (5 nM), fully bound probe (5 μM BIR3+5 nM probe 1) and binding buffer blank. The-EC50 of binding was computed from a 4-parameter fit of the measured anisotropies using the SoftMax Pro 4.6 software package (Molecular Dynamics, Sunnyvale, Calif.).
Alternatively, probe 1 was substituted with probe 2: 6-(6-Hydroxy-3-oxo-3H-xanthen-9-yl)-N-{5-(2-methylamino-propionylamino)-6-oxo-6-[4-(1,2,3,4-tetrahydro-naphthalen-1-ylcarbamoyl)-thiazolidin-3-yl]-hexyl}-isophthalamic acid, for rat BIR3 and the concentrations of assay components changed. […] Controls were adjusted accordingly.

| SMILES | EC50 [1] [µM] | EC50 (BIR3 domain of rat XIAP) [µM] |
| --- | --- | --- |
| CNC(C)C(=O)NC(C(=O)N1CSC(C)(C)C1C(=O)NC1CCCc2ccccc21)C(C)C (stereo not shown) [5,5-Dimethyl-3-[3-methyl-2-(2-methylamino-propionylamino)-butyryl]-thiazolidine-4-carboxylic acid (1,2,3,4-tetrahydro-naphthalen-1-yl)-amide] | < 1 | < 1 |
| CCCCS(=O)(=O)NCCCCC(NC(=O)C(NC(=O)C(C)NC)C(C)C)C(=O)NC1CCCc2ccccc21 (stereo not shown) [6-(Butane-1-sulfonylamino)-2-[3-methyl-2-(2-methylamino-propionylamino)-butyrylamino]-hexanoic acid (1,2,3,4-tetrahydro-naphthalen-1-yl)-amide] | < 1 | < 1 |
| CNC(C)C(=O)NC(C(=O)N1CSCC1C(=O)NN(Cc1ccccc1)Cc1ccccc1)C(C)C (stereo not shown) [N-{1-[4-(N′,N′-Dibenzyl-hydrazinocarbonyl)-thiazolidine-3-carbonyl]-2-methyl-propyl}-2-methylamino-propionamide] | < 1 | < 1 |
| CC(C)CNC(C)C(=O)NC(C(=O)N1CCCC1C(=O)NC1CCCc2ccccc21)C(C)(C)C (stereo not shown) [1-[2-(2-Isobutylamino-propionylamino)-3,3-dimethyl-butyryl]-pyrrolidine-2-carboxylic acid (1,2,3,4-tetrahydro-naphthalen-1-yl)-amide] | 1 to 10 | < 1 |
| CNC(C)C(=O)NC(C(=O)N1CCCC1C(=O)NN(Cc1ccccc1)Cc1ccccc1)C(C)(C)C (stereo not shown) [N-{1-[2-(N′,N′-Dibenzyl-hydrazinocarbonyl)-pyrrolidine-1-carbonyl]-2,2-dimethyl-propyl}-2-methylamino-propionamide] | 1 to 10 | < 1 |
| CNC(C)C(=O)NC(C(=O)N1CSCC1C(=O)NC(Cc1ccccc1)Cc1ccccc1)C(C)C (stereo not shown) [3-[3-Methyl-2-(2-methylamino-propionylamino)-butyryl]-thiazolidine-4-carboxylic acid (1-benzyl-2-phenyl-ethyl)-amide] | < 1 | < 1 |
| CC(NCC1CC1)C(=O)NC(C(=O)N1CCCC1C(=O)NC1CCCc2ccccc21)C(C)(C)C (stereo not shown) [1-{2-[2-(Cyclopropylmethyl-amino)-propionylamino]-3,3-dimethyl-butyryl}-pyrrolidine-2-carboxylic acid (1,2,3,4-tetrahydro-naphthalen-1-yl)-amide] | 1 to 10 | < 1 |
| CNC(C)C(=O)NC(C(=O)N1CCSC1C(=O)NC1CCCc2ccccc21)C(C)C (stereo not shown) [3-[3-Methyl-2-(2-methylamino-propionylamino)-butyryl]-thiazolidine-2-carboxylic acid (1,2,3,4-tetrahydro-naphthalen-1-yl)-amide] | < 1 | < 1 |
| CCCNC(C)C(=O)NC(C(=O)N1CCCC1C(=O)NC1CCCc2ccccc21)C(C)(C)C (stereo not shown) [1-[3,3-Dimethyl-2-(2-propylamino-propionylamino)-butyryl]-pyrrolidine-2-carboxylic acid (1,2,3,4-tetrahydro-naphthalen-1-yl)-amide] | 1 to 10 | < 1 |
| CNC(C)C(=O)NC(C(=O)N1CCSCC1C(=O)NC1CCCc2ccccc21)C(C)C (stereo not shown) [4-[3-Methyl-2-(2-methylamino-propionylamino)-butyryl]-thiomorpholine-3-carboxylic acid (1,2,3,4-tetrahydro-naphthalen-1-yl)-amide] | 1 to 10 | < 1 |
| CNC(C)C(=O)NC(C(=O)NC(CCCCNS(=O)(=O)C(F)(F)F)C(=O)NC1CCCc2ccccc21)C(C)C (stereo not shown) [2-[3-Methyl-2-(2-methylamino-propionylamino)-butyrylamino]-6-trifluoromethanesulfonylamino-hexanoic acid (1,2,3,4-tetrahydro-naphthalen-1-yl)-amide] | > 10 | < 1 |
| CN[C@@H](C)C(=O)N[C@H]1CCCC2CC[C@@H](C(=O)N[C@@H]3CCCc4ccccc43)N2C1=O (stereo partly shown) [6-(2-Methylamino-propionylamino)-5-oxo-octahydro-pyrrolo[1,2-a]azepine-3-carboxylic acid (1,2,3,4-tetrahydro-naphthalen-1-yl)-amide] | < 1 | < 1 |
| CNC(C)C(=O)NC(C(=O)N1CSCC1C(=O)NN(c1ccccc1)c1ccccc1)C(C)C (stereo not shown) [N-{1-[4-(N′,N′-Diphenyl-hydrazinocarbonyl)-thiazolidine-3-carbonyl]-2-methyl-propyl}-2-methylamino-propionamide] | 1 to 10 | < 1 |
| CCCCN(CCCC)CCCCC(NC(=O)C(NC(=O)C(C)NC)C(C)C)C(=O)NC1CCCc2ccccc21 (stereo not shown) [6-Dibutylamino-2-[3-methyl-2-(2-methylamino-propionylamino)-butyrylamino]-hexanoic acid (1,2,3,4-tetrahydro-naphthalen-1-yl)-amide] | < 1 | < 1 |
| CNC(C)C(=O)NC(C(=O)N1Cc2ccccc2CC1C(=O)NN(c1ccccc1)c1ccccc1)C(C)C (stereo not shown) [N-{1-[3-N′,N′-Diphenyl-hydrazinocarbonyl)-3,4-dihydro-1H-isoquinoline-2-carbonyl]-2-methyl-propyl}-2-methylamino-propionamide] | > 10 | > 10 |
| CNC(C)C(=O)NC(C(=O)NC(C(=O)NC1CCCc2ccccc21)C1CCCCC1)C(C)C (stereo not shown) [N-[Cyclohexyl-(1,2,3,4-tetrahydro-naphthalen-1-ylcarbamoyl)-methyl]-3-methyl-2-(2-methylamino-propionylamino)-butyramide] | < 1 | < 1 |

Results, then the molecule that gave them:

| EC50 [1] [µM] | EC50 (BIR3 domain of rat XIAP) [µM] | SMILES |
| --- | --- | --- |
| > 10 | 1 to 10 | CNC(C)C(=O)NC(C(=O)NC(Cc1ccccc1)C(=O)NC1CCCc2ccccc21)C(C)C (stereo not shown) [3-Methyl-2-(2-methylamino-propionylamino)-N-[2-phenyl-1-(1,2,3,4-tetrahydro-naphthalen-1-ylcarbamoyl)-ethyl]-butyramide] |
| < 1 | < 1 | CN[C@@H](C)C(=O)N[C@H](C(=O)N[C@@H](CCCCNS(=O)(=O)c1ccc(C)cc1)C(=O)NC1CCCc2ccccc21)C(C)C (stereo in doubt) [2-[3-Methyl-2-(2-methylamino-propionylamino)-butyrylamino]-6-(toluene-4-sulfonylamino)-hexanoic acid (1,2,3,4-tetrahydro-naphthalen-1-yl)-amide] |
| < 1 | < 1 | CNC(C)C(=O)NC(C(=O)N1Cc2ccccc2CC1C(=O)NC1CCCc2ccccc21)C(C)C (stereo not shown) [2-[3-Methyl-2-(2-methylamino-propionylamino)-butyryl]-1,2,3,4-tetrahydro-isoquinoline-3-carboxylic acid (1,2,3,4-tetrahydro-naphthalen-1-yl)-amide] |
| < 1 | < 1 | CNC(C)C(=O)NC(C(=O)NC(CCCCNC(=O)OCc1ccccc1Cl)C(=O)NC1CCCc2ccccc21)C(C)C (stereo not shown) [[5-[3-Methyl-2-(2-methylamino-propionylamino)-butyrylamino]-5-(1,2,3,4-tetrahydro-naphthalen-1-ylcarbamoyl)-pentyl]-carbamic acid 2-chloro-benzyl ester] |
| 1 to 10 | < 1 | CNC(C)C(=O)NC(C(=O)NC(CCO)C(=O)NC1CCCc2ccccc21)C(C)C (stereo not shown) [N-[3-Hydroxy-1-(1,2,3,4-tetrahydro-naphthalen-1-ylcarbamoyl)-propyl]-3-methyl-2-(2-methylamino-propionylamino)-butyramide] |
| < 1 | < 1 | CNC(C)C(=O)NC(C(=O)NC(CCCCNS(=O)(=O)c1ccc(OC)cc1)C(=O)NC1CCCc2ccccc21)C(C)C (stereo not shown) [6-(4-Methoxy-benzenesulfonylamino)-2-[3-methyl-2-(2-methylamino-propionylamino)-butyrylamino]-hexanoic acid (1,2,3,4-tetrahydro-naphthalen-1-yl)-amide] |
| 1 to 10 | < 1 | CCCCC(NC(=O)C(NC(=O)C(C)NC)C(C)C)C(=O)NC1CCCc2ccccc21 (stereo not shown) [2-[3-Methyl-2-(2-methylamino-propionylamino)-butyrylamino]-hexanoic acid (1,2,3,4-tetrahydro-naphthalen-1-yl)-amide] |
| 1 to 10 | < 1 | CNC(C)C(=O)NC(C(=O)NC(CCNC(=O)OCc1ccccc1)C(=O)NC1CCCc2ccccc21)C(C)C (stereo not shown) [[3-[3-Methyl-2-(2-methylamino-propionylamino)-butyrylamino]-3-(1,2,3,4-tetrahydro-naphthalen-1-ylcarbamoyl)-propyl]-carbamic acid benzyl ester] |
| 1 to 10 | < 1 | CNC(C)C(=O)NC(C(=O)NC(CCCCNC(C)=O)C(=O)NC1CCCc2ccccc21)C(C)C (stereo not shown) [6-Acetylamino-2-[3-methyl-2-(2-methylamino-propionylamino)-butyrylamino]-hexanoic acid (1,2,3,4-tetrahydro-naphthalen-1-yl)-amide] |
| < 1 | < 1 | CNC(C)C(=O)NC(C(=O)NC(CCCCNS(C)(=O)=O)C(=O)NC1CCCc2ccccc21)C(C)C (stereo not shown) [6-Methanesulfonylamino-2-[3-methyl-2-(2-methylamino-propionylamino)-butyrylamino]-hexanoic acid (1,2,3,4-tetrahydro-naphthalen-1-yl)-amide] |
